Results taken from the supplement of paper PMC10307832.

Key:
Assay in all cases: relative viability (nuclei count vs DMSO), 5 days (fraction); higher = more cells survive
[1] = compound: CCC1=CN=CN=C1N2CCN(CC2)CC3=NC4=C(N3)C=C(C=C4)C(F)(F)F + Nc1nc2[nH]cc(CCc3ccc(C(=O)N[C@@H](CCC(=O)O)C(=O)O)cc3)c2c(=O)[nH]1 [Pemetrexed] (partner 0.2 µM)
Summary of the method: (§1)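 Dosing by pin tool came one day after lung cancer cell lines were seeded in 1536-well plates, using either one drug or a fixed anchor-drug dose plus five library-drug doses (not always all listed) in √10 steps. After 5 days, nuclei were counted on 4× images. Relative viability is treated-well nuclei count divided by vehicle-well nuclei count, and values are medians of duplicate plates.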

[2] = compound: N=C1NC(=O)/C(=C/c2ccc(O)cc2)S1 [Mirin] + COc1cccc2cc(-c3nc([C@H]4CC[C@H](C(=O)O)CC4)n4ncnc(N)c34)[nH]c12 [OSI-027] (partner 0.5 µM)
Summary of the method: as §1

[3] = compound: CCC1=CN=CN=C1N2CCN(CC2)CC3=NC4=C(N3)C=C(C=C4)C(F)(F)F + CCNC(=O)c1noc(-c2cc(C(C)C)c(O)cc2O)c1-c1ccc(CN2CCOCC2)cc1 [Luminespib] (partner 0.01 µM)
Summary of the method: as §1

[4] = compound: CCn1c(-c2nonc2N)nc2cnc(Oc3cccc(NC(=O)c4ccc(OCCN5CCOCC5)cc4)c3)cc21 + COc1cc2c(Oc3ccc(NC(=O)C4(C(=O)Nc5ccc(F)cc5)CC4)cc3F)ccnc2cc1OCCCN1CCOCC1 [Foretinib] (partner 0.25 µM)
Summary of the method: as §1

Cell Line	relative viability ([1]; first compound 0.04 µM)	relative viability ([1]; first compound 0.1265 µM)	relative viability ([1]; first compound 0.4 µM)	relative viability ([1]; first compound 1.265 µM)	relative viability ([1]; first compound 4 µM)	relative viability ([2]; first compound 0.25 µM)	relative viability ([2]; first compound 0.7906 µM)	relative viability ([2]; first compound 2.5 µM)	relative viability ([2]; first compound 7.906 µM)	relative viability ([2]; first compound 25 µM)	relative viability ([3]; first compound 0.04 µM)	relative viability ([3]; first compound 0.1265 µM)	relative viability ([3]; first compound 0.4 µM)	relative viability ([3]; first compound 1.265 µM)	relative viability ([3]; first compound 4 µM)	relative viability ([4]; first compound 0.04 µM)	relative viability ([4]; first compound 0.1265 µM)	relative viability ([4]; first compound 0.4 µM)	relative viability ([4]; first compound 1.265 µM)	relative viability ([4]; first compound 4 µM)
NCI-H661	0.908	0.973	0.941	0.921	0.921	0.755	0.893	0.702	0.62	0.606	0.968	0.935	0.885	0.872	0.783	0.966	0.846	0.925	0.801	0.522
EKVX	0.425	0.395	0.399	0.404	0.384	0.691	0.672	0.761	0.591	0.67	0.846	0.83	0.882	–	0.919	0.889	0.686	0.708	0.445	0.735
NCI-H520	0.667	0.719	0.762	0.576	0.602	0.241	0.289	0.257	0.222	0.177	0.243	0.256	0.264	–	0.199	0.962	0.994	0.755	0.603	0.429
NCI-H2342	0.785	0.751	0.652	0.518	0.625	0.618	0.634	0.579	0.489	0.558	0.645	0.756	0.619	0.52	0.494	1.16	1.18	1.01	0.771	0.917
LCLC-97TM1	0.161	0.152	0.153	0.194	0.173	0.455	0.263	0.341	0.291	0.292	0.706	0.779	0.724	0.733	0.716	1.03	1.04	0.813	0.902	0.937
COR-L23	0.208	0.199	0.189	0.198	0.206	0.803	0.816	0.761	0.69	0.728	0.717	0.629	0.641	0.654	0.545	0.91	0.778	0.569	0.182	0.176
NCI-H1355	1.07	0.928	0.996	0.996	1.08	0.411	0.376	0.379	0.406	0.424	0.707	0.641	0.689	0.61	0.753	1.05	0.948	1.03	0.955	1
NCI-H1666	0.745	0.831	0.861	0.81	0.939	0.795	0.949	0.806	0.79	0.682	0.949	0.906	0.925	0.908	1.04	1.1	1.11	1.2	0.767	0.442
